Reference: patent publication US20240246959A1, “BENZIMIDAZOLE DERIVATIVE AND PREPARATION METHOD THEREFOR AND MEDICAL USE THEREOF” (Shenzhen Salubris Pharmaceuticals Co., Ltd., priority 2020, published 2024)

Experiments:
human GLP-1 R = molecular target: T1, human GLP-1 R (Homo sapiens, UniProt P43220); assay: cAMP signal activation in human GLP1R cells (hGLP1R-U2OS, HTRF); assay type: cell-based
T1 construct: expressed in transfected cells
Method: A cell line stably expressing human GLP1 R (hGLP1R-U2OS) was used in this experiment. The cells were cultured in a growth medium (complete medium, DMEM+10% FBS+500 μg/mL G418 (Promega)) in an incubator at 37° C. and has 5% CO2 saturated humidity.
hGLP1R-U2OS was inoculated into 384-well plate with 1.0×10^4 cells/well (5 μL) (cell working solution: DMEM+0.1% BSA+1 mM IBMX (available from Bide Pharmatech Ltd.)), and was placed in an incubator at 37° C. and held for 30 min. The compounds to be tested were diluted stage-by-stage with Stimulation Buffer 1 (1×) in the kit, and the diluted compounds were added to the culture plate with 5 μL/well. They were incubated in an incubator at 37° C. for 30 min. Then, 5 μL/well of cAMP-d2 prepared with Lysis & Detection buffer and 5 μL/well of Anti CAMP-Cryptate working solution were added successively, and they were incubated at room temperature for 60 min before detection.
The ratio of signal emitted by donor to […] in each well was calculated as follows: HTRF rate=signal at 665 nm/signal at 620 nm×104, and then the HTRF rate was converted into a reaction rate (%). The concentration-response curve of each Example compound was created by a 4-parameter equation as Y=Bottom+(Top−Bottom)/(1+10^((Log IC50−X)*HillSlope)), and the half maximal (50%) effective concentration (EC50) was calculated.

[1] = Pharmacokinetic study on rat; assay type: in vivo, SD rats; conditions: for F: 5 mg/kg p.o vs 1 mg/kg i.v; for AUC(0-t) / Cmax / clearance / half-life: male, Sprague-Dawley (SD), plasma
Description: • SD rats: male, 180-250 g, purchased from Beijing Vital River Laboratory Animal Technology Co., Ltd. • Reagents: DMSO (dimethyl sulfoxide), PEG-400 (polyethylene glycol 400), physiological saline, heparin, acetonitrile, formic acid, and propranolol (internal standard), all of which are commercially available. • Instruments: Thermo Fisher Scientific LC-MS (U300 UPLC, TSQ QUANTUMN ULTRA triple quadrupole mass spectrometer).
A compound was weighed and dissolved in a DMSO-PEG-400-physiological saline (5:60:35, v/v/v) system. After the rats were administered with the compound intravenously or by gavage, 200 μL of venous blood samples were collected at 15 min, 30 min, 1 h, 2 h, 5 h, 7 h, and 24 h (for i.v. group an additional collection was performed at 5 min) in heparinized EP tubes respectively, which were centrifuged at 12,000 rpm for 2 min, and the plasma was frozen at −80° C. for further testing. A certain amount of the test substance was precisely weighed and dissolved in DMSO to obtain a stock solution with a concentration of 2 mg/mL. An appropriate amount of the stock solution of the compound was accurately pipetted and diluted with acetonitrile to prepare a standard series solution. 20 μL of each of the above standard series solution was accurately pipetted, added with 180 μL of blank plasma, and vortexed mixed to prepare plasma samples corresponding to plasma concentrations of 0.3, 1, 3, 10, 30, 100, 300, 1000, 3000 ng/mL. Two-sample analysis was performed for each concentration to establish a standard curve. 30 μL of plasma (for samples that are obtained at 5 min, 15 min, 30 min, and 1 h after intravenous administration, the plasma were diluted 10 times) was taken, added with 200 μL of a solution of internal standard propranolol in acetonitrile (50 ng/ml), and vortexed mixed. The mixture was then added with 100 μL of pure water, and vortexed and mixed again. It was centrifuged at 4000 rpm for 5 min, and the supernatant was collected for LC-MS analysis. LC-MS detection conditions were as follows. • Chromatographic column: Thermo Scientific HYPERSIL GOLD C-18 UPLC column, 100*2.1 mm, 1.7 μm. • Mobile phase: water (with 0.1% formic acid)-acetonitrile; gradient elution was performed according to the table below.
After blood drug concentrations was detected by LC-MS, WinNonlin 6.1 software was used to calculate pharmacokinetic parameters based on non-compartmental model.

T1 sequence (P43220 24-463): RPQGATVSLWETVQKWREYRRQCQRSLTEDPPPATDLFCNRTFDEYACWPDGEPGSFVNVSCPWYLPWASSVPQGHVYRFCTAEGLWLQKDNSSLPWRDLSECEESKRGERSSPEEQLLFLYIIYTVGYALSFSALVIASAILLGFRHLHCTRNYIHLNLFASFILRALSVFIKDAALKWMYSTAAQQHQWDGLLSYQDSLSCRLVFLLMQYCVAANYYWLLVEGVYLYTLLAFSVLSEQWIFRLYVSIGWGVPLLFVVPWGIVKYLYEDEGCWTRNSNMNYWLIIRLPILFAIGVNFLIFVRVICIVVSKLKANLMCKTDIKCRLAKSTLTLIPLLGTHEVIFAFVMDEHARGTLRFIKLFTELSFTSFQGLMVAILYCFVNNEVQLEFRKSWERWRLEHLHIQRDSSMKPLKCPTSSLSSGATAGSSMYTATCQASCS

C[C@@H](c1nc2ccc(C(=O)O)cc2n1C[C@@H]1CCO1)N1CCC(c2cccc(OCc3ccc(C#N)cc3F)n2)CC1 [Example 2A, 2-((S)-1-(4-(6-((4-cyano-2-fluorobenzyl)oxy)pyridin-2-yl)piperidin-1-yl)ethyl)-1-(((S)-oxetan-2-yl)methyl)-1H-benzo[d]imidazol-6-carboxylic acid]
EC50 (human GLP-1 R): 3.18 nM
F [1]: 63.5%
AUC(0-t) ([1]; iv, 1 mg/kg, i.v): 1250 ng·h/mL
Cmax ([1]; iv, 1 mg/kg, i.v): 2330 ng/mL
clearance ([1]; iv, 1 mg/kg, i.v): 13.3 mL/min/kg
half-life ([1]; iv, 1 mg/kg, i.v): 0.71 h
AUC(0-t) ([1]; po, 5 mg/kg, p.o): 3970 ng·h/mL
Cmax ([1]; po, 5 mg/kg, p.o): 1290 ng/mL
half-life ([1]; po, 5 mg/kg, p.o): 3.11 h

C[C@@H](c1nc2ccc(C(=O)O)cc2n1C[C@@H]1CCO1)N1CCC(c2cccc(OCc3ccc4cnn(CC(F)F)c4c3)n2)CC1 [Example 8, 2-((S)-1-(4-(6-((1-(2,2-difluoroethyl)-1H-indazol-6-yl)methoxy)pyridin-2-yl)piperidin-1-yl)ethyl)-1-(((S)-oxetan-2-yl)methyl)-1H-benzo[d]imidazol-6-carboxylic acid]
EC50 (human GLP-1 R): 10.3 nM

C[C@@H](c1nc2ccc(C(=O)O)cc2n1C[C@@H]1CCO1)N1CCC(c2cccc(OCc3ccc4cnn(CC(F)(F)F)c4c3)n2)CC1 [Example 9, 1-(((S)-oxetan-2-yl)methyl)-2-((S)-1-(4-(6-((1-(2,2,2-trifluoroethyl)-1H-indazol-6-yl)methoxy)pyridin-2-yl)piperidin-1-yl)ethyl)-1H-benzo[d]imidazol-6-carboxylic acid]
EC50 (human GLP-1 R): 3.48 nM

C[C@@H](c1nc2ccc(C(=O)O)cc2n1C[C@@H]1CCO1)N1CCN(c2ncc(F)c(OCc3ccc(C#N)cc3F)n2)CC1 [Example 42, 2-((S)-1-(4-(4-((4-cyano-2-fluorobenzyl)oxy)-5-fluoropyrimidin-2-yl)piperazin-1-yl)ethyl)-1-(((S)-oxetan-2-yl)methyl)-1H-benzo[d]imidazol-6-carboxylic acid]
EC50 (human GLP-1 R): 12 nM

C[C@@H](c1nc2ccc(C(=O)O)cc2n1C[C@@H]1CCO1)N1CCN(c2cc(C#N)cc(OCc3ccc(C#N)cc3F)n2)CC1 [Example 45, 2-((S)-1-(4-(4-cyano-6-((4-cyano-2-fluorobenzyl)oxo)pyridin-2-yl)piperazin-1-yl)ethyl)-1-(((S)-oxetan-2-yl)methyl)-1H-benzo[d]imidazol-6-carboxylic acid]
EC50 (human GLP-1 R): 24.6 nM

C[C@@H](c1nc2ccc(C(=O)O)nc2n1C[C@@H]1CCO1)N1CCC(c2cccc(OCc3ccc(Cl)cc3F)n2)CC1 [Example 12, 2-((S)-1-(4-(6-((4-chloro-2-fluorobenzyl)oxy)pyridin-2-yl)piperidin-1-yl)ethyl)-3-(((S)-oxetan-2-yl)methyl)-3H-imidazolo[4,5-b]pyridin-5-carboxylic acid]
EC50 (human GLP-1 R): 3.89 nM
F [1]: 168.2%
AUC(0-t) ([1]; iv, 1 mg/kg, i.v): 1700 ng·h/mL
Cmax ([1]; iv, 1 mg/kg, i.v): 2250 ng/mL
clearance ([1]; iv, 1 mg/kg, i.v): 9.79 mL/min/kg
half-life ([1]; iv, 1 mg/kg, i.v): 0.87 h
AUC(0-t) ([1]; po, 5 mg/kg, p.o): 14300 ng·h/mL
Cmax ([1]; po, 5 mg/kg, p.o): 3780 ng/mL
half-life ([1]; po, 5 mg/kg, p.o): 2.69 h

C[C@@H](c1nc2ccc(C(=O)O)cc2n1C[C@@H]1CCO1)N1CCC(c2cccc(OCc3ccc(Cl)cc3F)n2)C(O)C1 (stereo partly drawn) [Example 31, 2-((1S)-1-((3,4-trans)-4-(6-((4-chloro-2-fluorobenzyl)oxy)pyridin-2-yl)-3-hydroxypiperidin-1-yl)ethyl)-1-(((S)-oxetan-2-yl)methyl)-1H-benzo[d]imidazol-6-carboxylic acid]
EC50 (human GLP-1 R): 14.4 nM

C[C@@H](c1nc2ccc(C(=O)O)cc2n1C[C@@H]1CCO1)N1CCC(c2cccc(OCc3cc(F)ccc3F)n2)CC1 [Example 5, 2-((S)-1-(4-(6-((2,5-difluorobenzyl)oxy)pyridin-2-yl)piperidin-1-yl)ethyl)-1-(((S)-oxetan-2-yl)methyl)-1H-benzo[d]imidazol-6-carboxylic acid]
EC50 (human GLP-1 R): 1.04 nM
F [1]: 72.8%
AUC(0-t) ([1]; iv, 1 mg/kg, i.v): 5770 ng·h/mL
Cmax ([1]; iv, 1 mg/kg, i.v): 4730 ng/mL
clearance ([1]; iv, 1 mg/kg, i.v): 2.88 mL/min/kg
half-life ([1]; iv, 1 mg/kg, i.v): 3.87 h
AUC(0-t) ([1]; po, 5 mg/kg, p.o): 21000 ng·h/mL
Cmax ([1]; po, 5 mg/kg, p.o): 3470 ng/mL
half-life ([1]; po, 5 mg/kg, p.o): 2.76 h

C[C@@H](c1nc2ccc(C(=O)O)cc2n1C[C@@H]1CCO1)N1CCC(c2cccc(OCc3ccc(Br)cc3F)n2)CC1 [Example 13, 2-((S)-1-(4-(6-((4-bromo-2-fluorobenzyl)oxy)pyridin-2-yl)piperidin-1-yl)ethyl)-1-(((S)-oxetan-2-yl)methyl)-1H-benzo[d]imidazol-6-carboxylic acid]
EC50 (human GLP-1 R): 18.7 nM

C[C@@H](c1nc2ccc(C(=O)O)nc2n1C[C@@H]1CCO1)N1CCC(c2cccc(OCc3ccc4cnn(CC(F)(F)F)c4c3)n2)CC1 [Example 17, 3-(((S)-oxetan-2-yl)methyl)-2-((S)-1-(4-(6-((1-(2,2,2-trifluoroethyl)-1H-indazol-6-yl)methoxy)pyridin-2-yl)piperidin-1-yl)ethyl)-3H-imidazo[4,5-b]pyridin-5-carboxylic acid]
EC50 (human GLP-1 R): 2.92 nM

C[C@@H](c1nc2ccc(C(=O)O)nc2n1C[C@@H]1CCO1)N1CCC(c2cccc(OCc3ccc4cnn(CC(F)F)c4c3)n2)CC1 [Example 11, 2-((S)-1-(4-(6-((1-(2,2-difluoroethyl)-1H-indazol-6-yl)methoxy)pyridin-2-yl)piperidin-1-yl)ethyl)-3-(((S)-oxetan-2-yl)methyl)-3H-imidazo[4,5-b]pyridin-5-carboxylic acid]
EC50 (human GLP-1 R): 3.45 nM

C[C@@H](c1nc2ccc(C(=O)O)nc2n1C[C@@H]1CCO1)N1CCC(c2cccc(OCc3ccnc4cc(F)ccc34)n2)CC1 [Example 18, 2-((S)-1-(4-(6-((7-fluoroquinolin-4-yl)methoxy)pyridin-2-yl)piperidin-1-yl)ethyl)-3-(((S)-oxetan-2-yl)methyl)-3H-imidazo[4,5-b]pyridine-5-carboxylic acid]
EC50 (human GLP-1 R): 2.66 nM

C[C@@H](c1nc2ccc(C(=O)O)nc2n1C[C@@H]1CCO1)N1CCC(c2cccc(OCc3cccc4cc(F)cnc34)n2)CC1 [Example 19, 2-((S)-1-(4-(6-((3-fluoroquinolin-8-yl)methoxy)pyridin-2-yl)piperidin-1-yl)ethyl)-3-(((S)-oxetan-2-yl)methyl)-3H-imidazo[4,5-b]pyridin-5-carboxylic acid]
EC50 (human GLP-1 R): 3.94 nM

C[C@@H](c1nc2ccc(C(=O)O)nc2n1C[C@@H]1CCO1)N1CCC(c2cccc(OCc3ccc(C#N)cc3F)n2)CC1 [Example 15, 2-((S)-1-(4-(6-((4-cyano-2-fluorobenzyl)oxy)pyridin-2-yl)piperidin-1-yl)ethyl)-3-(((S)-oxetan-2-yl)methyl)-3H-imidazo[4,5-b]pyridin-5-carboxylic acid]
EC50 (human GLP-1 R): 2.57 nM

C[C@@H](c1nc2ccc(C(=O)O)cc2n1C[C@@H]1CCO1)N1CCN(c2cc(C(F)(F)F)cc(OCc3ccc(C#N)cc3F)n2)CC1 [Example 44, 2-((S)-1-(4-(6-((4-cyano-2-fluorobenzyl)oxy)-4-(trifluoromethyl)pyridin-2-yl)piperazin-1-yl)ethyl)-1-(((S)-oxetan-2-yl)methyl)-1H-benzo[d]imidazol-6-carboxylic acid]
F [1]: 57.3%
AUC(0-t) ([1]; iv, 1 mg/kg, i.v): 2260 ng·h/mL
Cmax ([1]; iv, 1 mg/kg, i.v): 4360 ng/mL
clearance ([1]; iv, 1 mg/kg, i.v): 7.37 mL/min/kg
half-life ([1]; iv, 1 mg/kg, i.v): 0.69 h
AUC(0-t) ([1]; po, 5 mg/kg, p.o): 6470 ng·h/mL
Cmax ([1]; po, 5 mg/kg, p.o): 1410 ng/mL
half-life ([1]; po, 5 mg/kg, p.o): 2.9 h

C[C@@H](c1nc2ccc(C(=O)O)cc2n1C[C@@H]1CCO1)N1CCN(c2cccc(OCc3ccc(Cl)cc3F)n2)CC1 [Example 39A]
EC50 (human GLP-1 R): 15.5 nM
